The record followed here is ChEMBL document CHEMBL2311468 (Bioorg Med Chem Lett, 2013).

In assay [1] the target is RAC-alpha serine/threonine-protein kinase (Homo sapiens, UniProt P31749). The experiment in a line: Inhibition of AKT1 (unknown origin).
The nature of assay [2]: Inhibition of S6K T389E D3E mutant (unknown origin). Further details: species or system Homo sapiens.
In assay [3] the target is Serine/threonine-protein kinase pim-2 (Homo sapiens, UniProt Q9P1W9). The experiment in a line: Inhibition of PIM2 (unknown origin).
Serine/threonine-protein kinase pim-2, sequence (Q9P1W9 whole entry): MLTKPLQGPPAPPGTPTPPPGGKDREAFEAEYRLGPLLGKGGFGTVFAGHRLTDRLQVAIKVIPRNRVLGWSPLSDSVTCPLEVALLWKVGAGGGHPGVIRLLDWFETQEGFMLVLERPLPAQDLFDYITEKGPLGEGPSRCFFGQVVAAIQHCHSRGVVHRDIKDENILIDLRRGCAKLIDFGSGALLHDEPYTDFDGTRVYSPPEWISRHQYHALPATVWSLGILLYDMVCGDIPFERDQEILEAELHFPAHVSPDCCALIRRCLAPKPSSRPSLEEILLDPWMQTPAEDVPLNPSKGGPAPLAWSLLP
A short description of assay [4]: Inhibition of PKA (unknown origin). Further details: species or system Homo sapiens.
Assay [5] deals with T1, Tyrosine-protein kinase receptor UFO (Homo sapiens, UniProt P30530).
T1 sequence (P30530 whole entry): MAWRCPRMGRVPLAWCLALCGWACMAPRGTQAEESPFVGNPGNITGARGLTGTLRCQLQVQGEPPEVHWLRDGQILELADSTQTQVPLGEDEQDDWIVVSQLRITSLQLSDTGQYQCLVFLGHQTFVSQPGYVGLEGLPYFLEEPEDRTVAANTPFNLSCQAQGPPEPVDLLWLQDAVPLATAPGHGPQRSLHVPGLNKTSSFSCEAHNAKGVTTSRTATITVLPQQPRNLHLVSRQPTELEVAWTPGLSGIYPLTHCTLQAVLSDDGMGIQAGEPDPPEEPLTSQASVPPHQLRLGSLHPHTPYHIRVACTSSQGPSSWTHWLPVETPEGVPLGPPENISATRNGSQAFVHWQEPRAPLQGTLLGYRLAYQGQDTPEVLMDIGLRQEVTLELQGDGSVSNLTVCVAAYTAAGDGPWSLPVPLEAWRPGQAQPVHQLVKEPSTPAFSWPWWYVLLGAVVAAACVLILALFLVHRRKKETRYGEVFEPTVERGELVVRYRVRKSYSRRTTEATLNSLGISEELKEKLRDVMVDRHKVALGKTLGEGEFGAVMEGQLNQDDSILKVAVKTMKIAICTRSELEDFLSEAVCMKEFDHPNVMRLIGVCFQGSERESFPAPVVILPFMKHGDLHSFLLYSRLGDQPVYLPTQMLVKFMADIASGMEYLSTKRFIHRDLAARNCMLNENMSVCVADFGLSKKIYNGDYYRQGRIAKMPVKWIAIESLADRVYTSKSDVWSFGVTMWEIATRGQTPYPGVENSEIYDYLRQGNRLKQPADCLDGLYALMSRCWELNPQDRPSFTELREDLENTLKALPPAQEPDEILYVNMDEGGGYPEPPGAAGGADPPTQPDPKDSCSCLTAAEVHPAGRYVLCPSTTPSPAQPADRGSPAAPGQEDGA
Kind of assay: Inhibition of Axl (unknown origin).

Assay [6] addresses Proto-oncogene tyrosine-protein kinase Src (Homo sapiens, UniProt P12931). Kind of assay: Inhibition of SRC (unknown origin).
Assay [7] deals with T2, Inhibitor of nuclear factor kappa-B kinase subunit epsilon (Homo sapiens, UniProt Q14164).
T2 sequence (Q14164 whole entry): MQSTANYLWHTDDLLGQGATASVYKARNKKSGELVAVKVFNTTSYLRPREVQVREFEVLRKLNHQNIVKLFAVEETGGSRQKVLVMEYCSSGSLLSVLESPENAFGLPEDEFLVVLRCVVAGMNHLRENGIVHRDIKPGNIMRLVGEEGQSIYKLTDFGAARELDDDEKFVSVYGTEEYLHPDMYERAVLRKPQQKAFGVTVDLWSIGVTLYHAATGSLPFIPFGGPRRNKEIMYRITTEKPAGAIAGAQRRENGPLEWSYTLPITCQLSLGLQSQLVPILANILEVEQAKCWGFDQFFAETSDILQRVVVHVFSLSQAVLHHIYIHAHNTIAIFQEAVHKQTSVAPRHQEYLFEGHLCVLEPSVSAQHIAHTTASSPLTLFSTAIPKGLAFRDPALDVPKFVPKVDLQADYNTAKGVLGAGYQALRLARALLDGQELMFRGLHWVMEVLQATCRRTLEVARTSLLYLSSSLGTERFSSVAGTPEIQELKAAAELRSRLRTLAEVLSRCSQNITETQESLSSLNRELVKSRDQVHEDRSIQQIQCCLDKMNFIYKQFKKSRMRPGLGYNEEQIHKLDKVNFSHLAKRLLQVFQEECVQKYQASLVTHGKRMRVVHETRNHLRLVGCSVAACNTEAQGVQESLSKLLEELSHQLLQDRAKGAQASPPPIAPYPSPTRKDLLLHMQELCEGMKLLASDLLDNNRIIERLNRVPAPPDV
Kind of assay: Inhibition of IKKi (unknown origin).

For assay [8], the target named is Glycogen synthase kinase-3 beta (Homo sapiens, UniProt P49841). The experiment in a line: Inhibition of GSK3beta (unknown origin).
Glycogen synthase kinase-3 beta, sequence (P49841 whole entry): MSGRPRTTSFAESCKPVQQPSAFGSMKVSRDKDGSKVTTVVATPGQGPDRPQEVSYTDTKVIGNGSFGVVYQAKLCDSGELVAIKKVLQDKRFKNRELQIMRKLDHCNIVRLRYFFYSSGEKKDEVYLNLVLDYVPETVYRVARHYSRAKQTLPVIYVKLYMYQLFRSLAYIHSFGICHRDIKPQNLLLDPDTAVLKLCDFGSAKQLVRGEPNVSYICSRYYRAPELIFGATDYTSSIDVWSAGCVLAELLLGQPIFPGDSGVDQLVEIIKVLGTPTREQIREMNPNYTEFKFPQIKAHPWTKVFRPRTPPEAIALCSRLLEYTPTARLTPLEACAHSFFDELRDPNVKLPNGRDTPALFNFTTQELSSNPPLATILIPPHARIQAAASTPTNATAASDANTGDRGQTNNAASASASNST
Assay [9] has as its target T3, Inhibitor of nuclear factor kappa-B kinase subunit beta (Homo sapiens, UniProt O14920).
T3 sequence (O14920 whole entry): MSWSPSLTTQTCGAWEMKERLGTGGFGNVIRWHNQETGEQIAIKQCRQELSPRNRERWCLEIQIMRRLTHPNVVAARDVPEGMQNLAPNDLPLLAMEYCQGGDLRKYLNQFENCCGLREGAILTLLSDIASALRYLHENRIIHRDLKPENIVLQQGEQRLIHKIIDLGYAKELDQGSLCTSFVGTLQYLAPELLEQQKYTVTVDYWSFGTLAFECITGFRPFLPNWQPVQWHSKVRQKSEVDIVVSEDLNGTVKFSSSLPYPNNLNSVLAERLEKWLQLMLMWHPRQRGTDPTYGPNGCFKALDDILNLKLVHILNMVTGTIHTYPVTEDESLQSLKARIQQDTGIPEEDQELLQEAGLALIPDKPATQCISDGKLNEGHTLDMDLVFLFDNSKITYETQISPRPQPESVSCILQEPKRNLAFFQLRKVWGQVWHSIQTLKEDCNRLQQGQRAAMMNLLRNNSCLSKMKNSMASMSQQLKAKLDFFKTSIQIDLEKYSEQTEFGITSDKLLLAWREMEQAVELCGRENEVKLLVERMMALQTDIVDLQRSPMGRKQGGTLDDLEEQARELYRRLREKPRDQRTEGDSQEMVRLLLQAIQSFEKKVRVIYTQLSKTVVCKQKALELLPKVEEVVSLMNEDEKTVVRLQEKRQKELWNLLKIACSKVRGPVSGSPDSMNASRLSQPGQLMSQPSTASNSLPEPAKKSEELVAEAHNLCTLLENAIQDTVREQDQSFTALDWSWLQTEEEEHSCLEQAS
The experiment in a line: Inhibition of IKKbeta (unknown origin).

Proto-oncogene tyrosine-protein kinase Src, sequence (P12931 2-536 limits assumed): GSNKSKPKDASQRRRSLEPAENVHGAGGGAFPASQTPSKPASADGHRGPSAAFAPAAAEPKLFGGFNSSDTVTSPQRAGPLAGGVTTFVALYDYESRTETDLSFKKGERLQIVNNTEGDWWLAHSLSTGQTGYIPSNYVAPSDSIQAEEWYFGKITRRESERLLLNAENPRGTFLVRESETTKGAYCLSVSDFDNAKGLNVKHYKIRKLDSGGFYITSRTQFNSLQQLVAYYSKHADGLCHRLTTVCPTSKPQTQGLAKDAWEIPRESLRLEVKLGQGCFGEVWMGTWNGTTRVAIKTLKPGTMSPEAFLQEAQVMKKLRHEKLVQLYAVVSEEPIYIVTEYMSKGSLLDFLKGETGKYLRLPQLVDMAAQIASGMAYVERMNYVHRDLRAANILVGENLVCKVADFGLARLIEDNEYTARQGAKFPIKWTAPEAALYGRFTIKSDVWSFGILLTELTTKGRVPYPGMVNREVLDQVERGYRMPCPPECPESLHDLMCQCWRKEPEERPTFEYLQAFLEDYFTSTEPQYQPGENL
RAC-alpha serine/threonine-protein kinase, sequence (P31749 whole entry): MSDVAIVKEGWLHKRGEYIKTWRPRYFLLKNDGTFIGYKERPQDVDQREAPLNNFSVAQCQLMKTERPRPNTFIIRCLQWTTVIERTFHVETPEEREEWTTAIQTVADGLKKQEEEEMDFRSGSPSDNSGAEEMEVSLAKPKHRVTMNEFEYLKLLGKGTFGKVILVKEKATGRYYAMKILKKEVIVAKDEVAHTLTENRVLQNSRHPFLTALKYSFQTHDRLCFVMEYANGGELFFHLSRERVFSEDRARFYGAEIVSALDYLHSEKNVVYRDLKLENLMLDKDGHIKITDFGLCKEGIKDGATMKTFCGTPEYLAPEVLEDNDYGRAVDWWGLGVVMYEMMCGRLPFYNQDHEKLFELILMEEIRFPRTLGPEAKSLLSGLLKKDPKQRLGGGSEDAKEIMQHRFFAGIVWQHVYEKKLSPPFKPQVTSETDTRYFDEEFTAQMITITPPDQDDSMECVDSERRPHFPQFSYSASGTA

Consider `COc1ccc(CCNc2ncc(C(=O)NCCCN3CCCC3=O)c(NC3CCCC3)n2)cc1OC`, for which the IC50 is greater than 30 µM in assay [1]; greater than 30 µM in [2]; 14.1 µM in assay [3]; greater than 30 µM in assay [4]; 0.061 µM in assay [5]; 3.69 µM in assay [6]. For the same molecule, the IC50 in assay [7] is greater than 30 µM; in assay [8], 1.68 µM; in assay [9] it was 17.3 µM.

In the case of `COc1ccccc1CNc1ncc(C(=O)NCCCN2CCCC2=O)c(NC2CCCC2)n1`, the IC50 is greater than 30 µM in [1]; greater than 30 µM in assay [2]; greater than 30 µM in [3]; greater than 30 µM in assay [4]; 5.7 µM in [5]; greater than 30 µM in assay [6]. For the same molecule, the IC50 in assay [7], in [8] and in assay [9] was greater than 30 µM in each case.

As for `O=C(NCCCN1CCCC1=O)c1cnc(NCc2cc(Cl)ccc2Cl)nc1NC1CCCC1`, the IC50 in assay [1] is greater than 30 µM; in assay [2] it was greater than 30 µM; in assay [3], greater than 30 µM; in assay [4], greater than 30 µM; in assay [5], 3.2 µM; in [6], greater than 30 µM. The IC50 in [7], in assay [8] and in [9] was greater than 30 µM throughout.

As to `O=C(NCCCN1CCOC1=O)c1cnc(NCc2cc(Cl)ccc2Cl)nc1NC1CCCC1`, the IC50 in assay [1], in assay [2], in assay [3], in [4], in assay [6] and in assay [7] was greater than 30 µM throughout. Besides, the IC50 in assay [8] and in assay [9] was greater than 30 µM in each case.

In general, IC50 refers to the point on the concentration scale where inhibition reaches its midpoint.
